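Grown in 96-well plates, cells were treated for 48 hours with each compound at five concentrations. Insufficient inhibition: endpoint recorded as highest concentration tested. The concentration for full growth arrest is given as TGI.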
Columns and labels:
Assay in all cases: NCI tumour cell line growth inhibition, 48 h
[1] = system: DMS 273 small cell lung
[2] = system: LOX IMVI melanoma
[3] = system: HT29 colon
[4] = system: BT-549 breast
[5] = system: HOP-92 NSCLC
[6] = system: T-47D breast
[7] = system: SF-268 CNS
[8] = system: SN12C renal
[9] = system: HCT-116 colon
[10] = system: KM20L2 colon
[11] = system: SF-295 CNS
[12] = system: RPMI-8226 leukemia
[13] = system: SW-620 colon
[14] = system: MALME-3M melanoma
[15] = system: NCI-H226 lung
[16] = system: P388 leukemia
[17] = system: EKVX NSCLC
[18] = system: A498 renal
[19] = system: SN12K1 renal
[20] = system: SNB-75 CNS
[21] = system: P388/ADR leukemia
[22] = system: HL-60(TB) leukemia
[23] = system: UACC-62 melanoma
[24] = system: SNB-78 CNS
[25] = system: MOLT-4 leukemia
[26] = system: NCI-H23 lung
[27] = system: COLO 205 colon
[28] = system: CAKI-1 renal
[29] = system: NCI-H522 lung
[30] = system: SK-MEL-2 melanoma
[31] = system: NCI/ADR-RES ovarian
[32] = system: HCT-15 colon
[33] = system: ACHN renal
[34] = system: 786-0 renal
[35] = system: IGROV1 ovarian
[36] = system: HS 578T breast
[37] = system: K-562 leukemia
[38] = system: M19-MEL melanoma
[39] = system: UO-31 renal
[40] = system: OVCAR-8 ovarian
[41] = system: DLD-1 colon
[42] = system: KM12 colon
[43] = system: HOP-18 NSCLC
[44] = system: CCRF-CEM leukemia
[45] = system: MDA-MB-231 breast
[46] = system: HOP-62 NSCLC
[47] = system: SNB-19 CNS
[48] = system: SK-MEL-28 melanoma
[49] = system: RXF 393 renal
[50] = system: OVCAR-5 ovarian
[51] = system: MCF7 breast
[52] = system: TK-10 renal
[53] = system: UACC-257 melanoma
[54] = system: PC-3 prostate
[55] = system: DMS 114 small cell lung
[56] = system: DU-145 prostate
[57] = system: SK-OV-3 ovarian
[58] = system: NCI-H460 lung
[59] = system: OVCAR-3 ovarian
[60] = system: M14 melanoma
[61] = system: U251 CNS
[62] = system: XF 498 CNS
[63] = system: OVCAR-4 ovarian
[64] = system: MDA-N
[65] = system: SF-539 CNS
[66] = system: A549 NSCLC
[67] = system: MDA-MB-435
[68] = system: SK-MEL-5 melanoma
[69] = system: HCC-2998 colon
[70] = system: SR leukemia

`CCCCCCCCCCCCCCCCCCOCC(COP(=O)([O-])OCC[N+](C)(C)C)OC` (stereo not given) showed a TGI [1] of 10.5 µM, a TGI [2] of 45 µM and a TGI [3] of 23.5 µM. For the same compound, the TGI [4] was over 100 µM, the TGI [5] was 25.4 µM and the TGI [6] was over 100 µM. For the same compound, the TGI [7] was 51.8 µM, the TGI [8] was 34.6 µM and the TGI [9] was 43.5 µM. For the same compound, the TGI [10] was 9.02 µM, the TGI [11] was 29.7 µM and the TGI [12] was 45.7 µM. The TGI [13] was 47.9 µM, the TGI [14] was 46.8 µM and the TGI [15] was 44.7 µM. For the same compound, the TGI [16] was 11 µM, the TGI [17] was 70.3 µM and the TGI [18] was 45.8 µM. It also gave a TGI [19] of 24.3 µM, a TGI [20] of 37.2 µM and a TGI [21] of 20 µM. It also gave a TGI [22] of 13.6 µM, a TGI [23] of 47.1 µM and a TGI [24] of 49.2 µM. For the same compound, the TGI [25] was 29.3 µM, the TGI [26] was 61.6 µM and the TGI [27] was 21.2 µM. The TGI [28] was 44.3 µM, the TGI [29] was 32.7 µM and the TGI [30] was 54.9 µM. For the same compound, the TGI [31] was 64.1 µM, the TGI [32] was 11.3 µM and the TGI [33] was over 100 µM. The TGI [34] was over 71.7 µM, the TGI [35] was 18.7 µM and the TGI [36] was over 100 µM. For the same compound, the TGI [37] was 75.2 µM, the TGI [38] was 16.8 µM and the TGI [39] was 52.7 µM. It also gave a TGI [40] of 57.7 µM, a TGI [41] of 17.7 µM and a TGI [42] of 10.4 µM. It also gave a TGI [43] of 27.5 µM, a TGI [44] of 28 µM and a TGI [45] of over 100 µM. The TGI [46] was over 58.9 µM, the TGI [47] was 47.1 µM and the TGI [48] was 57.9 µM. For the same compound, the TGI [49] was 42.2 µM, the TGI [50] was 37 µM and the TGI [51] was over 54.3 µM. The TGI [52] was 41.5 µM, the TGI [53] was 30.5 µM and the TGI [54] was 57.2 µM. The TGI [55] was 26.8 µM, the TGI [56] was over 100 µM and the TGI [57] was 46 µM. For the same compound, the TGI [58] was 17.6 µM, the TGI [59] was 54.5 µM and the TGI [60] was over 63.5 µM. For the same compound, the TGI [61] was 42.8 µM, the TGI [62] was 28.8 µM and the TGI [63] was over 52.6 µM. The TGI [64] was over 100 µM, the TGI [65] was over 70.2 µM and the TGI [66] was 49.3 µM. It also gave a TGI [67] of over 100 µM, a TGI [68] of 62.9 µM and a TGI [69] of 9.93 µM. The TGI [70] was over 60.1 µM.

— PubChem BioAssay (NCI)
